Source: PubChem BioAssay AID248 (DTP/NCI, 2004)
Several values for one entry are separate records, joined by “and”; a condition that tells them apart may be missing. Equal entries are not always repeated. Toxic doses and inconclusive results are not listed.

System: L1210 leukemia ip in BDF1 mice, survival T/C
Assay: NCI In Vivo Anticancer Drug Screen. Data for tumor model L1210 Leukemia (intraperitoneal) in B6D2F1 (BDF1) mice
Details: endpoint: mean survival time, higher = longer survival
Outline: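 Value reflects the ratio of survival in compound-treated mice to survival in vehicle-treated controls, with both groups carrying the same transplanted tumor.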

[1] = dose: 400.0 mg/kg/injection, schedule: Q01DX001 (ip), vehicle: saline
[2] = dose: 100.0 mg/kg/injection, schedule: Q01DX009 (ip), vehicle: saline with Tween-80
[3] = dose: 100.0 mg/kg/injection, schedule: Q04DX003 (ip), vehicle: saline with Tween-80
[4] = dose: 200.0 mg/kg/injection, schedule: Q01DX009 (ip), vehicle: saline with Tween-80
[5] = dose: 200.0 mg/kg/injection, schedule: Q04DX003 (ip), vehicle: saline with Tween-80
[6] = dose: 400.0 mg/kg/injection, schedule: Q01DX009 (ip), vehicle: saline with Tween-80
[7] = dose: 400.0 mg/kg/injection, schedule: Q04DX003 (ip), vehicle: saline with Tween-80
[8] = dose: 100.0 mg/kg/injection, schedule: Q01DX009 (ip), vehicle: Klucel (hydroxypropylcellulose) (HPC)
[9] = dose: 200.0 mg/kg/injection, schedule: Q01DX009 (ip), vehicle: Klucel (hydroxypropylcellulose) (HPC)
[10] = dose: 400.0 mg/kg/injection, schedule: Q01DX009 (ip), vehicle: Klucel (hydroxypropylcellulose) (HPC)
[11] = dose: 100.0 mg/kg/injection, schedule: Q04DX003 (ip), vehicle: Klucel (hydroxypropylcellulose) (HPC)
[12] = dose: 200.0 mg/kg/injection, schedule: Q04DX003 (ip), vehicle: Klucel (hydroxypropylcellulose) (HPC)
[13] = dose: 400.0 mg/kg/injection, schedule: Q04DX003 (ip), vehicle: Klucel (hydroxypropylcellulose) (HPC)
[14] = dose: 100.0 mg/kg/injection, schedule: Q01DX001 (ip), vehicle: saline
[15] = dose: 200.0 mg/kg/injection, schedule: Q01DX001 (ip), vehicle: saline
[16] = dose: 100.0 mg/kg/injection, schedule: Q01DX001 (ip), vehicle: carboxymethylcellulose (CMC)
[17] = dose: 200.0 mg/kg/injection, schedule: Q01DX001 (ip), vehicle: carboxymethylcellulose (CMC)
[18] = dose: 400.0 mg/kg/injection, schedule: Q01DX001 (ip), vehicle: carboxymethylcellulose (CMC)

CCNc1nncs1
T/C (dose: 7.0 mg/kg/injection, schedule: Q03HX032 (ip), vehicle: saline): 97 % of control | T/C (dose: 11.0 mg/kg/injection, schedule: Q03HX032 (ip), vehicle: saline): 104 % of control | T/C (dose: 16.0 mg/kg/injection, schedule: Q03HX032 (ip), vehicle: saline): 105 % of control | T/C (dose: 17.25 mg/kg/injection, schedule: Q01DX Z (ip), vehicle: carboxymethylcellulose (CMC)): 102 % of control | T/C (dose: 24.0 mg/kg/injection, schedule: Q03HX032 (ip), vehicle: saline): 101 % of control | T/C (dose: 27.0 mg/kg/injection, schedule: Q01DX015 (ip), vehicle: saline): 106 % of control | T/C (dose: 27.6 mg/kg/injection, schedule: Q01DX Z (ip), vehicle: carboxymethylcellulose (CMC)): 100 % of control and 114 % of control | T/C (dose: 34.5 mg/kg/injection, schedule: Q01DX Z (ip), vehicle: carboxymethylcellulose (CMC)): 98 % of control and 101 % of control | T/C (dose: 36.0 mg/kg/injection, schedule: Q03HX032 (ip), vehicle: saline): 118 % of control | T/C (dose: 40.0 mg/kg/injection, schedule: Q01DX015 (ip), vehicle: saline): 103 % of control | T/C (dose: 46.0 mg/kg/injection, schedule: Q01DX Z (ip), vehicle: carboxymethylcellulose (CMC)): 100 % of control and 107 % of control | T/C (dose: 60.0 mg/kg/injection, schedule: Q01DX015 (ip), vehicle: saline): 108 % of control | T/C (dose: 64.0 mg/kg/injection, schedule: Q02DX010 (ip), vehicle: carboxymethylcellulose (CMC)): 117 % of control | T/C (dose: 75.0 mg/kg/injection, schedule: Q01DX Z (ip), vehicle: saline): 170 % of control | T/C (dose: 96.0 mg/kg/injection, schedule: Q02DX010 (ip), vehicle: carboxymethylcellulose (CMC)): 123 % of control | T/C (dose: 103.5 mg/kg/injection, schedule: Q01DX Z (ip), vehicle: carboxymethylcellulose (CMC)): 123 % of control | T/C (dose: 138.0 mg/kg/injection, schedule: Q01DX Z (ip), vehicle: carboxymethylcellulose (CMC)): 112 % of control | T/C (dose: 150.0 mg/kg/injection, schedule: Q01DX Z (ip), vehicle: saline): 176 % of control | T/C (dose: 150.0 mg/kg/injection, schedule: Q01DX Z (oral), vehicle: saline): 115 % of control | T/C (dose: 265.0 mg/kg/injection, schedule: Q01DX001 (ip), vehicle: saline): 104 % of control | T/C (dose: 270.0 mg/kg/injection, schedule: Q01DX001 (ip), vehicle: saline): 106 % of control | T/C (dose: 300.0 mg/kg/injection, schedule: Q01DX Z (oral), vehicle: saline): 98 % of control | T/C (dose: 337.0 mg/kg/injection, schedule: Q02DX010 (ip), vehicle: carboxymethylcellulose (CMC)): 120 % of control | T/C [1]: 109 % of control | T/C (dose: 562.0 mg/kg/injection, schedule: Q02DX010 (ip), vehicle: carboxymethylcellulose (CMC)): 112 % of control and 76 % of control | T/C (dose: 562.5 mg/kg/injection, schedule: Q02DX010 (ip), vehicle: carboxymethylcellulose (CMC)): 84 % of control and 88 % of control | T/C (dose: 600.0 mg/kg/injection, schedule: Q01DX001 (ip), vehicle: saline): 117 % of control | T/C (dose: 600.0 mg/kg/injection, schedule: Q01DX Z (oral), vehicle: saline): 87 % of control

O=C1c2ccccc2-c2ccccc21
T/C [2]: 88 % of control | T/C [3]: 102 % of control | T/C [4]: 93 % of control | T/C [5]: 102 % of control | T/C [6]: 88 % of control | T/C [7]: 105 % of control

COc1ccc(OC(=O)Nc2ccc(OC)cc2OC)cc1
T/C [8]: 97 % of control | T/C [9]: 104 % of control | T/C [10]: 96 % of control

COC(=O)c1cc(Cl)c(C(=O)OC)cc1Cl
T/C [11]: 90 % of control | T/C [12]: 98 % of control | T/C [13]: 102 % of control

O=C(O)/C(Br)=C\c1cccc([N+](=O)[O-])c1
T/C [14]: 107 % of control | T/C [15]: 98 % of control | T/C [1]: 109 % of control

COc1ccccc1NC(=O)Nc1ccccc1
T/C [8]: 94 % of control and 102 % of control | T/C [11]: 95 % of control | T/C [9]: 96 % of control and 97 % of control | T/C [12]: 93 % of control | T/C [10]: 96 % of control and 100 % of control | T/C [13]: 86 % of control

c1ccc(CN=C2c3ccccc3C3(c4ccccc4)C2N3Cc2ccccc2)cc1 (stereo not given)
T/C [8]: 103 % of control | T/C [11]: 98 % of control | T/C [9]: 103 % of control | T/C [12]: 101 % of control | T/C [10]: 103 % of control | T/C [13]: 97 % of control

Oc1c(Cl)cc(Cl)cc1CNCc1ccccc1
T/C (dose: 100.0 mg/kg/injection, schedule: Q01DX001 (ip), vehicle: other): 93 % of control | T/C (dose: 100.0 mg/kg/injection, schedule: Q04DX003 (ip), vehicle: other): 110 % of control | T/C (dose: 200.0 mg/kg/injection, schedule: Q01DX001 (ip), vehicle: other): 94 % of control | T/C (dose: 200.0 mg/kg/injection, schedule: Q04DX003 (ip), vehicle: other): 102 % of control | T/C (dose: 400.0 mg/kg/injection, schedule: Q01DX001 (ip), vehicle: other): 90 % of control | T/C (dose: 400.0 mg/kg/injection, schedule: Q04DX003 (ip), vehicle: other): 110 % of control

Cc1nn(C2CC(OC(=O)c3ccc([N+](=O)[O-])cc3)C(OC(=O)c3ccc([N+](=O)[O-])cc3)C(COC(=O)c3ccc([N+](=O)[O-])cc3)O2)c(=O)[nH]c1=O (stereo not given)
T/C (dose: 100.0 mg/kg/injection, schedule: Q01DX005 (ip), vehicle: saline): 100 % of control | T/C (dose: 200.0 mg/kg/injection, schedule: Q01DX005 (ip), vehicle: saline): 96 % of control

CC1CCc2ccccc2N1CCN (stereo not given)
T/C (dose: 25.0 mg/kg/injection, schedule: Q01DX009 (ip), vehicle: saline): 103 % of control | T/C (dose: 50.0 mg/kg/injection, schedule: Q01DX009 (ip), vehicle: saline): 103 % of control | T/C (dose: 100.0 mg/kg/injection, schedule: Q01DX009 (ip), vehicle: saline): 97 % of control

COc1ccc(OC)c(/C=C/[N+](=O)[O-])c1
T/C (dose: 6.25 mg/kg/injection, schedule: Q01DX009 (ip), vehicle: Klucel (hydroxypropylcellulose) (HPC)): 105 % of control | T/C (dose: 12.5 mg/kg/injection, schedule: Q01DX009 (ip), vehicle: Klucel (hydroxypropylcellulose) (HPC)): 102 % of control | T/C (dose: 25.0 mg/kg/injection, schedule: Q01DX009 (ip), vehicle: Klucel (hydroxypropylcellulose) (HPC)): 107 % of control | T/C (dose: 50.0 mg/kg/injection, schedule: Q01DX009 (ip), vehicle: Klucel (hydroxypropylcellulose) (HPC)): 105 % of control | T/C (dose: 100.0 mg/kg/injection, schedule: Q04DX003 (ip), vehicle: gum acacia): 97 % of control

OC(c1ccccc1)(c1ccc(-c2ccccc2)cc1)c1cccc2ccccc12 (stereo not given)
T/C (dose: 75.0 mg/kg/injection, schedule: Q01DX001 (ip), vehicle: saline): 92 % of control | T/C (dose: 150.0 mg/kg/injection, schedule: Q01DX001 (ip), vehicle: saline): 92 % of control | T/C (dose: 300.0 mg/kg/injection, schedule: Q01DX001 (ip), vehicle: saline): 91 % of control

C#CCN(CC#C)C(C)=O
T/C (dose: 100.0 mg/kg/injection, schedule: Q04DX002 (ip), vehicle: saline): 91 % of control | T/C (dose: 200.0 mg/kg/injection, schedule: Q04DX002 (ip), vehicle: saline): 94 % of control

O=c1c2ccccc2c(=O)c2c1ccc1[nH]c3ccccc3n(-c3ccccc3)c12
T/C [3]: 88 % of control | T/C [5]: 89 % of control | T/C [7]: 94 % of control

CCCCCCCCC(O)CCCCCCCCC(=O)O (stereo not given)
T/C [2]: 101 % of control | T/C [4]: 97 % of control | T/C [6]: 86 % of control

CN(C/C=C/CN(C)P(=S)(N1CC1)N1CC1)P(=S)(N1CC1)N1CC1
T/C [16]: 96 % of control | T/C [17]: 93 % of control | T/C [18]: 109 % of control

O=C1C(=O)C(c2ccccc2)(c2ccccc2)c2cc(-c3ccccc3)c(-c3ccccc3)cc21
T/C [5]: 93 % of control

O=C(Nc1ccc2ccccc2c1)c1ccccc1Cl
T/C [8]: 93 % of control | T/C [9]: 101 % of control | T/C [10]: 101 % of control

CCOC(=O)C(C)(C)O
T/C [14]: 91 % of control | T/C [15]: 100 % of control | T/C [1]: 102 % of control

CCCC1(c2ccsc2)NC(=O)NC1=O (stereo not given)
T/C [16]: 98 % of control | T/C [17]: 98 % of control | T/C [18]: 90 % of control
